Measured values from patent publication EP4153181B1, “PHARMACEUTICAL COMPOSITIONS COMPRISING BICTEGRAVIR” (GILEAD SCIENCES, INC., priority 2020, dated 2021).

Key:
Settings in all cases: IV administration, mean
[1] = Plasma pharmacokinetics of BIC after single SC or IM injection of long acting formulations in monkey; type: in vivo, cynomolgus monkey
[2] = Plasma pharmacokinetics of BIC after single SC injection of long acting formulations (and IV infusion) in rat; type: in vivo, male Sprague-Dawley rat
From the text: (§1) Pharmacokinetics (PK) following a single BIC SC injection of solution and suspension formulations was characterized in male Sprague-Dawley rat, beagle dog, and cynomolgus monkey. The BIC injectable solution and both suspension formulations display extended-release PK following SC administration in all examined species and support a potential monthly or less frequent dosing regimen. […] Table 1. BIC Plasma Pharmacokinetic Parameters Following a Single Subcutaneous (SC) or Intramuscular (IM) Administration
This study investigated the pharmacokinetics of three formulations of bictegravir (BIC) by subcutaneous administration to determine the potential to deliver a long acting (LA) pharmacokinetic (PK) profile. […] The concentrations of BIC in plasma were determined with a liquid chromatography-tandem mass spectrometry (LC-MS/MS) method. […]
The intravenous dose was administered as a 30-minute infusion via a catheter implanted animals. […] Individual dose was calculated based on body weights recorded on the day of dose administration. […]
For estimation of pharmacokinetic parameters, concentrations reported as below the lower limit of quantification (BLQ) were assigned a value of zero if pre-dose and treated as missing thereafter. […]

[3] = Plasma pharmacokinetics of BIC after single SC injection of long acting formulations (and IV infusion) in dog; type: in vivo, beagle dog
From the text: as §1
This study investigated the pharmacokinetics of three formulations of bictegravir (BIC) by subcutaneous administration to determine the potential to deliver a long acting (LA) pharmacokinetic (PK) profile. BIC was administered by a 30-min intravenous (IV) infusion at 0.5 or 1 mg/kg and by subcutaneous (SC) injection of three LA formulations (e.g., NMP solution, HPMC suspension, and PVP suspension) at 10 mg/kg or 100 mg fixed dose to Male Beagle Dogs. The concentrations of BIC in plasma were determined with a liquid chromatography-tandem mass spectrometry (LC-MS/MS) method.
At dosing, the animals weighed between 7.98 and 11.6 kg. The animals from the SC leg with the PVP suspension were not fasted. […]
The intravenous dose was administered as a 30-minute infusion via a saphenous vein. […] Individual dose was calculated based on body weights recorded on the day of dose administration. […]

O=C(NCc1c(F)cc(F)cc1F)c1cn2c(c(O)c1=O)C(=O)N1[C@H]3CC[C@H](C3)O[C@@H]1C2 [BIC, (2R,5S,13aR)-8-hydroxy-7,9-dioxo-N-(2,4,6-trifluorobenzyl)-2,3,4,5,7,9,13,13a-octahydro-2,5-methanopyrido[1',2':4,5]pyrazino[2,1-b][1,3]oxazepine-10-carboxamide]
systemic elimination rate (ke1 = CL/Vss) [1]: ~ 0.253 h^-1
systemic elimination rate (ke1 = CL/Vss) [2]: ~ 0.0162 h^-1
systemic elimination rate (ke1 = CL/Vss) [3]: ~ 0.302 h^-1
